Laboratory results from ChEMBL document CHEMBL1201862, “PubChem BioAssay data set” (2004).
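Where inhibition never reached the appropriate level, the endpoint shown equals the highest concentration tested. Otherwise, values were interpolated linearly from a five-concentration, 48-hour dose response in 96-well plates. Abbreviation: GI50, concentration required for 50% inhibition of growth.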 Active and inactive are the calls of the source. Cut-off read from the data, not from the text of the source: active = GI50 up to about 1.1 µM and inactive = higher.

Columns and labels:
Experiment in all cases: inhibition of tumour cell growth, NCI panel, 48 h
BT-549 = test system: BT-549
CCRF-CEM = test system: CCRF-CEM
DU-145 = test system: DU-145
HCT-15 = test system: HCT-15
HL-60 = test system: HL-60
HOP-92 = test system: HOP-92
K562 = test system: K562
KM12 = test system: KM12
LOX IMVI = test system: LOX IMVI
M14 = test system: M14
MCF7 = test system: MCF7
MDA-MB-435 = test system: MDA-MB-435
MDA-N = test system: MDA-N
MOLT-4 = test system: MOLT-4
Malme-3M = test system: Malme-3M
NCI-H226 = test system: NCI-H226
NCI-H23 = test system: NCI-H23
NCI-H522 = test system: NCI-H522
NCI/ADR-RES = test system: NCI/ADR-RES
OVCAR-3 = test system: OVCAR-3
OVCAR-4 = test system: OVCAR-4
OVCAR-5 = test system: OVCAR-5
PC-3 = test system: PC-3
SK-MEL-2 = test system: SK-MEL-2
SN12C = test system: SN12C
SNB-19 = test system: SNB-19
SR = test system: SR
SW-620 = test system: SW-620
TK-10 = test system: TK-10
U-251 = test system: U-251
UO-31 = test system: UO-31
786-0 = test system: 786-0
A498 = test system: A498
A549 = test system: A549
ACHN = test system: ACHN
CAKI-1 = test system: CAKI-1
COLO 205 = test system: COLO 205
EKVX = test system: EKVX
HCC 2998 = test system: HCC 2998
HCT-116 = test system: HCT-116
HOP-62 = test system: HOP-62
HT-29 = test system: HT-29
Hs-578T = test system: Hs-578T
IGROV-1 = test system: IGROV-1
MDA-MB-231 = test system: MDA-MB-231
NCI-H460 = test system: NCI-H460
OVCAR-8 = test system: OVCAR-8
RPMI-8226 = test system: RPMI-8226
RXF 393 = test system: RXF 393
SF-268 = test system: SF-268
SF-295 = test system: SF-295
SF-539 = test system: SF-539
SK-MEL-28 = test system: SK-MEL-28
SK-MEL-5 = test system: SK-MEL-5
SK-OV-3 = test system: SK-OV-3
SNB-75 = test system: SNB-75
T47D = test system: T47D
UACC-257 = test system: UACC-257
UACC-62 = test system: UACC-62

In the case of `COc1ccccc1C1(C)SCc2nc3ccccc3n21` (configuration not stated), the GI50 (BT-549) was > 10 µM (inactive), the GI50 (CCRF-CEM) was > 10 µM (inactive) and the GI50 (DU-145) was > 10 µM (inactive). For the same molecule, the GI50 (HCT-15) was > 10 µM, the GI50 (HL-60) was > 10 µM (inactive) and the GI50 (HOP-92) was > 10 µM (inactive). For the same molecule, the GI50 (K562) was > 10 µM (inactive), the GI50 (KM12) was > 10 µM (inactive) and the GI50 (LOX IMVI) was > 10 µM (inactive). The GI50 (M14) was > 10 µM (inactive), the GI50 (MCF7) was > 10 µM (inactive) and the GI50 (MDA-MB-435) was > 10 µM (inactive). For the same molecule, the GI50 (MDA-N) was > 10 µM (inactive), the GI50 (MOLT-4) was > 10 µM (inactive) and the GI50 (Malme-3M) was > 10 µM (inactive). For the same molecule, the GI50 (NCI-H226) was > 10 µM (inactive), the GI50 (NCI-H23) was > 10 µM (inactive) and the GI50 (NCI-H522) was > 10 µM (inactive). The GI50 (NCI/ADR-RES) was > 10 µM (inactive), the GI50 (OVCAR-3) was > 10 µM (inactive) and the GI50 (OVCAR-4) was > 10 µM (inactive). For the same molecule, the GI50 (OVCAR-5) was > 10 µM (inactive), the GI50 (PC-3) was > 10 µM (inactive) and the GI50 (SK-MEL-2) was > 10 µM (inactive). The GI50 (SN12C) was > 10 µM (inactive), the GI50 (SNB-19) was > 10 µM (inactive) and the GI50 (SR) was > 10 µM (inactive). The GI50 (SW-620) was > 10 µM (inactive), the GI50 (TK-10) was > 10 µM (inactive) and the GI50 (U-251) was > 10 µM (inactive). The GI50 (UO-31) was > 10 µM (inactive).
In the case of `CCCN(CCC)C(=O)c1c(Cl)c2cccnc2n2c(C)cnc12`, the GI50 (786-0) was > 100 µM (inactive), the GI50 (A498) was 69.5 µM (inactive) and the GI50 (A549) was 48.8 µM (inactive). The GI50 (ACHN) was > 100 µM (inactive), the GI50 (CAKI-1) was 22.9 µM (inactive) and the GI50 (CCRF-CEM) was 51.8 µM (inactive). For the same molecule, the GI50 (COLO 205) was 49.5 µM (inactive), the GI50 (DU-145) was > 100 µM (inactive) and the GI50 (EKVX) was > 100 µM (inactive). The GI50 (HCC 2998) was 97.9 µM (inactive), the GI50 (HCT-116) was 48.3 µM (inactive) and the GI50 (HL-60) was 23.1 µM (inactive). The GI50 (HOP-62) was > 100 µM (inactive), the GI50 (HOP-92) was 73.3 µM (inactive) and the GI50 (HT-29) was > 100 µM (inactive). The GI50 (Hs-578T) was > 100 µM (inactive), the GI50 (IGROV-1) was 64.4 µM (inactive) and the GI50 (K562) was 26.3 µM (inactive). For the same molecule, the GI50 (KM12) was 51.1 µM (inactive), the GI50 (LOX IMVI) was > 100 µM (inactive) and the GI50 (M14) was 61.2 µM (inactive). For the same molecule, the GI50 (MCF7) was 47.9 µM (inactive), the GI50 (MDA-MB-231) was 31.8 µM (inactive) and the GI50 (MDA-MB-435) was 27.2 µM (inactive). For the same molecule, the GI50 (MDA-N) was 23.6 µM (inactive), the GI50 (MOLT-4) was 33.3 µM (inactive) and the GI50 (Malme-3M) was > 100 µM (inactive). The GI50 (NCI-H226) was > 100 µM (inactive), the GI50 (NCI-H23) was 90.2 µM (inactive) and the GI50 (NCI-H460) was 76.9 µM (inactive). The GI50 (NCI-H522) was > 100 µM (inactive), the GI50 (NCI/ADR-RES) was 50.4 µM (inactive) and the GI50 (OVCAR-3) was 47.9 µM (inactive). For the same molecule, the GI50 (OVCAR-4) was > 100 µM (inactive), the GI50 (OVCAR-5) was > 100 µM (inactive) and the GI50 (OVCAR-8) was > 100 µM (inactive). The GI50 (PC-3) was 23.9 µM (inactive), the GI50 (RPMI-8226) was 39.5 µM (inactive) and the GI50 (RXF 393) was 35 µM (inactive). For the same molecule, the GI50 (SF-268) was 96.2 µM (inactive), the GI50 (SF-295) was > 100 µM (inactive) and the GI50 (SF-539) was > 100 µM (inactive). The GI50 (SK-MEL-28) was > 100 µM (inactive), the GI50 (SK-MEL-5) was 37.8 µM (inactive) and the GI50 (SK-OV-3) was 58.9 µM (inactive). The GI50 (SN12C) was > 100 µM (inactive), the GI50 (SNB-19) was > 100 µM (inactive) and the GI50 (SNB-75) was 62.7 µM (inactive). For the same molecule, the GI50 (SR) was 32.9 µM (inactive), the GI50 (SW-620) was 23.2 µM (inactive) and the GI50 (T47D) was 11.7 µM (inactive). For the same molecule, the GI50 (TK-10) was > 100 µM (inactive), the GI50 (UACC-257) was 95.3 µM (inactive) and the GI50 (UACC-62) was 52.7 µM (inactive). For the same molecule, the GI50 (UO-31) was 38.8 µM (inactive).
In the case of `CCN(CCCl)c1cc(CN(C)C)cc(NC(=O)c2ccc(C(=O)Nc3ccccc3)cc2)c1`, the GI50 (786-0) was 0.21 µM (active), the GI50 (A498) was 0.316 µM (active) and the GI50 (A549) was 0.42 µM (active). For the same molecule, the GI50 (ACHN) was 0.218 µM (active), the GI50 (CAKI-1) was 0.65 µM (active) and the GI50 (CCRF-CEM) was 0.27 µM (active). For the same molecule, the GI50 (COLO 205) was 1.04 µM (active), the GI50 (DU-145) was 0.415 µM (active) and the GI50 (HCC 2998) was 0.789 µM (active). For the same molecule, the GI50 (HCT-116) was 0.424 µM (active), the GI50 (HCT-15) was 1.7 µM and the GI50 (HL-60) was 0.193 µM (active). The GI50 (HOP-62) was 0.314 µM (active), the GI50 (HOP-92) was 0.414 µM (active) and the GI50 (HT-29) was 0.174 µM (active). The GI50 (Hs-578T) was 0.218 µM (active), the GI50 (IGROV-1) was 0.177 µM (active) and the GI50 (K562) was 0.406 µM (active). The GI50 (KM12) was 1.06 µM (active), the GI50 (LOX IMVI) was 0.204 µM (active) and the GI50 (M14) was 0.883 µM (active). The GI50 (MCF7) was 0.232 µM (active), the GI50 (MDA-MB-231) was 1.3 µM (inactive) and the GI50 (MDA-MB-435) was 0.239 µM (active). For the same molecule, the GI50 (MDA-N) was 0.298 µM (active), the GI50 (MOLT-4) was 0.284 µM (active) and the GI50 (Malme-3M) was 0.191 µM (active). The GI50 (NCI-H226) was 1.53 µM (inactive), the GI50 (NCI-H23) was 0.27 µM (active) and the GI50 (NCI-H460) was 0.275 µM (active). For the same molecule, the GI50 (NCI-H522) was 0.109 µM (active), the GI50 (NCI/ADR-RES) was 2.63 µM (inactive) and the GI50 (OVCAR-4) was 0.288 µM (active). The GI50 (OVCAR-5) was 0.836 µM (active), the GI50 (OVCAR-8) was 0.417 µM (active) and the GI50 (PC-3) was 0.34 µM (active). For the same molecule, the GI50 (RPMI-8226) was 0.307 µM (active), the GI50 (RXF 393) was 0.152 µM (active) and the GI50 (SF-268) was 0.337 µM (active). For the same molecule, the GI50 (SF-295) was 0.348 µM (active), the GI50 (SF-539) was 0.647 µM (active) and the GI50 (SK-MEL-28) was 1.19 µM (inactive). For the same molecule, the GI50 (SK-MEL-2) was 0.27 µM (active), the GI50 (SK-MEL-5) was 0.194 µM (active) and the GI50 (SK-OV-3) was 0.971 µM (active). The GI50 (SN12C) was 0.767 µM (active), the GI50 (SNB-19) was 0.676 µM (active) and the GI50 (SNB-75) was 1.08 µM (active). For the same molecule, the GI50 (SR) was 0.263 µM (active), the GI50 (SW-620) was 0.15 µM (active) and the GI50 (T47D) was 1.24 µM (inactive). The GI50 (TK-10) was 3.02 µM (inactive), the GI50 (U-251) was 0.25 µM (active) and the GI50 (UACC-257) was 1.3 µM (inactive). The GI50 (UACC-62) was 1.29 µM (inactive) and the GI50 (UO-31) was 1.91 µM (inactive).
